Converted amounts (≈) assume the structure as drawn.
Tests used:
Format in all cases: functional
[1] = system: Streptococcus pneumoniae; assay: Antibacterial activity against penicillin-intermediate Gram-positive Streptococcus pneumoniae TY-5745 after 18 hrs by agar dilution method; settings: TY-5745, 18 h
[2] = system: Haemophilus influenzae; assay: Antibacterial activity against beta-lactamase-negative ampicillin-resistant Gram-negative Haemophilus influenzae ME587 after 18 hrs by agar dilution method; settings: ME587, 18 h
[3] = system: Streptococcus pneumoniae; assay: Antibacterial activity against penicillin-susceptible Gram-positive Streptococcus pneumoniae S-223 after 18 hrs by agar dilution method; settings: S-223, 18 h
[4] = system: Streptococcus pneumoniae; assay: Antibacterial activity against penicillin-resistant Gram-positive Streptococcus pneumoniae JPS317 after 18 hrs by agar dilution method; settings: JPS317, 18 h

SMILES: CC[C@H]1OC(=O)CC[C@H](C)[C@@H](O[C@@H]2O[C@H](C)C[C@H](N(C)C)[C@H]2O)[C@@H](CC=O)C[C@@H](C)CN(C)CC/C(C)=C/[C@@H]1CO
- MIC [1]: 16 µg/mL (≈ 27.5 µM)
- MIC [2]: 4 µg/mL (≈ 6.86 µM)
- MIC [3]: 8 µg/mL (≈ 13.7 µM)
- MIC [4]: 8 µg/mL (≈ 13.7 µM)

SMILES: CC[C@H]1OC(=O)CC[C@H](C)[C@@H](O[C@@H]2O[C@H](C)C[C@H](N(C)C)[C@H]2O)[C@@H](CC=O)C[C@@H](C)N(C)CCC/C(C)=C/[C@@H]1CO
- MIC [1]: 32 µg/mL (≈ 54.9 µM)
- MIC [2]: 4 µg/mL (≈ 6.86 µM)
- MIC [3]: 8 µg/mL (≈ 13.7 µM)
- MIC [4]: 8 µg/mL (≈ 13.7 µM)

SMILES: CC[C@H]1OC(=O)CC[C@H](C)[C@@H](O[C@@H]2O[C@H](C)C[C@H](N(C)C)[C@H]2O)[C@@H](CC=O)C[C@@H](C)N(C)C/C=C/C(C)=C/[C@@H]1CO
- MIC [1]: 32 µg/mL (≈ 55.1 µM)
- MIC [2]: 4 µg/mL (≈ 6.89 µM)
- MIC [3]: 16 µg/mL (≈ 27.5 µM)
- MIC [4]: 32 µg/mL (≈ 55.1 µM)

SMILES: CC[C@H]1OC(=O)CC[C@H](C)[C@@H](O[C@@H]2O[C@H](C)C[C@H](N(C)C)[C@H]2O)[C@@H](CC=O)C[C@@H](C)C(=O)/C=C/C(C)=C/[C@@H]1CO
- MIC [1]: 1 µg/mL (≈ 1.77 µM)
- MIC [2]: 1 µg/mL (≈ 1.77 µM)
- MIC [3]: 0.25 µg/mL (≈ 0.442 µM)
- MIC [4]: 0.5 µg/mL (≈ 0.884 µM)

SMILES: CC[C@H]1OC(=O)[C@H](C)[C@@H](O[C@H]2C[C@@](C)(OC)[C@@H](O)[C@H](C)O2)[C@H](C)[C@@H](O[C@@H]2O[C@H](C)C[C@H](N(C)C)[C@H]2O)[C@](C)(O)C[C@@H](C)CN(C)[C@H](C)[C@@H](O)[C@]1(C)O [AZITHROMYCIN]
- MIC [1]: 1 µg/mL (≈ 1.34 µM)
- MIC [2]: 1 µg/mL (≈ 1.34 µM)
- MIC [3]: 0.25 µg/mL (≈ 0.334 µM)
- MIC [4]: 8 µg/mL (≈ 10.7 µM)

— ChEMBL document CHEMBL3632564, “Synthesis of 17-membered azalides from a 16-membered macrolide utilizing amide-selective silane reduction” (2015)
